Source: BigSolDB 2.1

Cn1c(=O)c2[nH]cnc2n(C)c1=O showed a solubility (mole fraction) (in acetone, 288.02 K) of 0.000667, a solubility (mole fraction) (in acetone, 298.15 K) of 0.00093 and a solubility (mole fraction) (in acetone, 308.15 K) of 0.00124. It also gave a solubility (mole fraction) (in acetone, 318.15 K) of 0.00147, a solubility (mole fraction) (in acetone, 328.1 K) of 0.0018 and a solubility (mole fraction) (in ethanol, 288.01 K) of 0.0008. For the same compound, the solubility (mole fraction) (in ethanol, 297.95 K) was 0.00116, the solubility (mole fraction) (in ethanol, 308.01 K) was 0.00173 and the solubility (mole fraction) (in ethanol, 318.11 K) was 0.00254. The solubility (mole fraction) (in ethanol, 328.09 K) was 0.00319, the solubility (mole fraction) (in ethyl acetate, 288.02 K) was 0.000502 and the solubility (mole fraction) (in ethyl acetate, 298.15 K) was 0.000673. The solubility (mole fraction) (in ethyl acetate, 308.15 K) was 0.000901, the solubility (mole fraction) (in ethyl acetate, 318.15 K) was 0.0011 and the solubility (mole fraction) (in ethyl acetate, 328.1 K) was 0.00141. For the same compound, the solubility (mole fraction) (in methanol, 288.06 K) was 0.00077, the solubility (mole fraction) (in methanol, 298.16 K) was 0.00137 and the solubility (mole fraction) (in methanol, 308.16 K) was 0.00217. It also gave a solubility (mole fraction) (in methanol, 318.13 K) of 0.00298, a solubility (mole fraction) (in methanol, 328.19 K) of 0.00394 and a solubility (mole fraction) (in n-propanol, 288.01 K) of 0.000912. The solubility (mole fraction) (in n-propanol, 297.95 K) was 0.00136, the solubility (mole fraction) (in n-propanol, 308.01 K) was 0.00204 and the solubility (mole fraction) (in n-propanol, 318.11 K) was 0.00313. It also gave a solubility (mole fraction) (in n-propanol, 328.09 K) of 0.00423, a solubility (mole fraction) (in water, 288.06 K) of 0.000325 and a solubility (mole fraction) (in water, 298.16 K) of 0.00063. For the same compound, the solubility (mole fraction) (in water, 308.16 K) was 0.000991, the solubility (mole fraction) (in water, 318.13 K) was 0.00141 and the solubility (mole fraction) (in water, 328.19 K) was 0.00216.
Compound Cn1cnc2c1c(=O)[nH]c(=O)n2C has a solubility (mole fraction) (in acetone, 288.13 K) of 1.47e-05, a solubility (mole fraction) (in acetone, 297.99 K) of 2.23e-05 and a solubility (mole fraction) (in acetone, 308.08 K) of 2.99e-05. For the same compound, the solubility (mole fraction) (in acetone, 318.07 K) was 4.57e-05, the solubility (mole fraction) (in acetone, 328.17 K) was 6.77e-05 and the solubility (mole fraction) (in ethanol, 288.15 K) was 1.38e-05. It also gave a solubility (mole fraction) (in ethanol, 298.2 K) of 2.26e-05, a solubility (mole fraction) (in ethanol, 308.19 K) of 3.85e-05 and a solubility (mole fraction) (in ethanol, 318.16 K) of 6.31e-05. It also gave a solubility (mole fraction) (in ethanol, 328.16 K) of 0.000106, a solubility (mole fraction) (in ethyl acetate, 288.13 K) of 1.04e-05 and a solubility (mole fraction) (in ethyl acetate, 297.99 K) of 1.59e-05. The solubility (mole fraction) (in ethyl acetate, 308.08 K) was 2.28e-05, the solubility (mole fraction) (in ethyl acetate, 318.07 K) was 3.33e-05 and the solubility (mole fraction) (in ethyl acetate, 328.17 K) was 4.94e-05. For the same compound, the solubility (mole fraction) (in methanol, 288.07 K) was 2.82e-05, the solubility (mole fraction) (in methanol, 298.1 K) was 4.34e-05 and the solubility (mole fraction) (in methanol, 308.93 K) was 7e-05. It also gave a solubility (mole fraction) (in methanol, 318.62 K) of 0.00011, a solubility (mole fraction) (in methanol, 328.15 K) of 0.000163 and a solubility (mole fraction) (in n-propanol, 288.15 K) of 1.18e-05. It also gave a solubility (mole fraction) (in n-propanol, 298.2 K) of 2.06e-05, a solubility (mole fraction) (in n-propanol, 308.19 K) of 3.71e-05 and a solubility (mole fraction) (in n-propanol, 318.16 K) of 6.37e-05. The solubility (mole fraction) (in n-propanol, 328.16 K) was 0.000109, the solubility (mole fraction) (in water, 288.07 K) was 3.09e-05 and the solubility (mole fraction) (in water, 298.1 K) was 4.73e-05. The solubility (mole fraction) (in water, 308.93 K) was 6.93e-05, the solubility (mole fraction) (in water, 318.62 K) was 0.0001 and the solubility (mole fraction) (in water, 328.15 K) was 0.000145.
